Literature values, collected in patent publication US20050272704A1, “Compounds, compositions and methods for stabilizing transthyretin and inhibiting transthyretin misfolding” (priority 2004, published 2005).
Like-named read-outs stand apart in the source and are kept apart here.

diflunisal concentration in blood (4 h after a single 500 mg dose): > 300 µM
diflunisal concentration in blood (20 h after a single 500 mg dose): exceed 30 μM
Compound: O=C(O)c1cc(-c2ccc(F)cc2F)ccc1O [diflunisal]
